Laboratory results: the OligoGym collection
HELM strings list units from the 5' end as sugar, base in round brackets, then linkage (d deoxyribose, r ribose, m 2'-O-methyl, p phosphodiester). Strings are as the collection lists them; they lack the last nucleoside at the 3' end of the tested compound. [moe] = 2'-O-(2-methoxyethyl) (MOE); [sp] = phosphorothioate linkage; [m5C] = 5-methylcytosine

Target: GFAP
Assay: mouse, dose not given
Conditions: ASO

For “RNA1{[moe](G)[sp].[moe](G)p.[moe](T)p.[moe](T)p.[moe](G)[sp].d(G)[sp].d(T)[sp].d(T)[sp].d(T)[sp].d([m5C])[sp].d(A)[sp].d(T)[sp].d([m5C])[sp].d([m5C])[sp].d(T)[sp].[moe](G)p.[moe](G)p.[moe](A)[sp].[moe](G)}$$$$ (last 3' nucleoside missing)”, the 3 h FOB score was 3 score 0-7.

“RNA1{[moe]([m5C])[sp].[moe](A)p.[moe](T)p.[moe](T)p.[moe]([m5C])[sp].d(A)[sp].d([m5C])[sp].d(T)[sp].d(A)[sp].d(A)[sp].d(T)[sp].d(A)[sp].d(T)[sp].[moe](T)p.[moe](T)p.[moe](A)[sp].[moe](A)}$$$$ (last 3' nucleoside missing)” showed a 3 h FOB score of 0 score 0-7.

For “RNA1{[moe](G)[sp].[moe](A)p.[moe](G)p.[moe](T)p.[moe](G)[sp].d(T)[sp].d(G)[sp].d(T)[sp].d(A)[sp].d(T)[sp].d(T)[sp].d(A)[sp].d(G)[sp].d(G)[sp].d(A)[sp].[moe](T)p.[moe]([m5C])p.[moe]([m5C])[sp].[moe]([m5C])}$$$$ (last 3' nucleoside missing)”, the 3 h FOB score was 6 score 0-7.

Substance “RNA1{[moe]([m5C])[sp].[moe](A)p.[moe](T)p.[moe](G)p.[moe](G)[sp].d([m5C])[sp].d([m5C])[sp].d(T)[sp].d(G)[sp].d(G)[sp].d([m5C])[sp].d([m5C])[sp].d(T)[sp].d(T)[sp].d(G)[sp].[moe](A)p.[moe](G)p.[moe](A)[sp].[moe](A)}$$$$ (last 3' nucleoside missing)” has a 3 h FOB score of 1 score 0-7.

“RNA1{[moe](G)[sp].[moe](G)p.[moe](T)p.[moe](G)p.[moe]([m5C])[sp].d(T)[sp].d(T)[sp].d(T)[sp].d(T)[sp].d(G)[sp].d([m5C])[sp].d([m5C])[sp].d([m5C])[sp].d([m5C])[sp].d([m5C])[sp].[moe](T)p.[moe]([m5C])p.[moe](G)[sp].[moe](A)}$$$$ (last 3' nucleoside missing)” gave a 3 h FOB score of 1 score 0-7.

With “RNA1{[moe]([m5C])[sp].[moe]([m5C])p.[moe](A)p.[moe](T)p.[moe](T)[sp].d(T)[sp].d(A)[sp].d(T)[sp].d([m5C])[sp].d(T)[sp].d(G)[sp].d(T)[sp].d(G)[sp].[moe]([m5C])p.[moe](T)p.[moe](T)[sp].[moe](T)}$$$$ (last 3' nucleoside missing)” the 3 h FOB score was 4 score 0-7.

For “RNA1{[moe](A)[sp].[moe]([m5C])p.[moe](T)p.[moe](A)p.[moe](T)[sp].d([m5C])[sp].d(T)[sp].d(A)[sp].d(G)[sp].d(G)[sp].d(A)[sp].d(T)[sp].d(T)[sp].[moe](T)p.[moe](G)p.[moe](G)[sp].[moe]([m5C])}$$$$ (last 3' nucleoside missing)”, the 3 h FOB score was 4 score 0-7.

For “RNA1{[moe](A)[sp].[moe](T)p.[moe](T)p.[moe](T)p.[moe](G)[sp].d(T)[sp].d([m5C])[sp].d(T)[sp].d(T)[sp].d(T)[sp].d(A)[sp].d(T)[sp].d(T)[sp].[moe](T)p.[moe](T)p.[moe](T)[sp].[moe]([m5C])}$$$$ (last 3' nucleoside missing)”, the 3 h FOB score was 0 score 0-7.

“RNA1{[moe](A)[sp].[moe](G)p.[moe]([m5C])p.[moe](A)p.d(T)[sp].d(T)[sp].d(T)[sp].d(G)[sp].d(T)[sp].d([m5C])[sp].d(T)[sp].d(T)[sp].d(T)[sp].d(A)[sp].[moe](T)p.[moe](T)p.[moe](T)p.[moe](T)[sp].[moe](T)}$$$$ (last 3' nucleoside missing)” was tested, and the 3 h FOB score was 1 score 0-7.

In the case of “RNA1{[moe](T)[sp].[moe](G)p.[moe](T)p.[moe](G)p.[moe](A)[sp].d(T)[sp].d(T)[sp].d(T)[sp].d(T)[sp].d([m5C])[sp].d([m5C])[sp].d([m5C])[sp].d([m5C])[sp].d(G)[sp].d(T)[sp].[moe]([m5C])p.[moe](T)p.[moe](T)[sp].[moe](T)}$$$$ (last 3' nucleoside missing)”, the 3 h FOB score is reported as 5 score 0-7.

“RNA1{[moe](G)[sp].[moe](G)p.[moe]([m5C])p.[moe](A)p.[moe](G)p.[moe](T)p.d(A)[sp].d(T)[sp].d(T)[sp].d(A)[sp].d([m5C])[sp].d([m5C])[sp].d(T)[sp].d([m5C])[sp].d(T)[sp].d(A)[sp].[moe]([m5C])p.[moe](T)[sp].[moe](A)}$$$$ (last 3' nucleoside missing)” showed a 3 h FOB score of 3 score 0-7.

“RNA1{[moe](G)[sp].[moe](T)p.[moe](G)p.[moe](A)p.[moe](T)[sp].d(T)[sp].d(T)[sp].d(T)[sp].d([m5C])[sp].d([m5C])[sp].d([m5C])[sp].d([m5C])[sp].d(G)[sp].[moe](T)p.[moe]([m5C])p.[moe](T)[sp].[moe](T)}$$$$ (last 3' nucleoside missing)” showed a 3 h FOB score of 0 score 0-7.

For “RNA1{[moe](G)[sp].[moe](T)p.[moe](G)p.[moe](T)p.[moe](G)[sp].d(T)[sp].d(A)[sp].d(T)[sp].d(T)[sp].d(A)[sp].d(G)[sp].d(G)[sp].d(A)[sp].[moe](T)p.[moe]([m5C])p.[moe]([m5C])[sp].[moe]([m5C])}$$$$ (last 3' nucleoside missing)”, the 3 h FOB score was 3 score 0-7.

For “RNA1{[moe]([m5C])[sp].[moe](A)p.[moe]([m5C])p.[moe](G)p.d(T)[sp].d([m5C])[sp].d(A)[sp].d([m5C])[sp].d(A)[sp].d(T)[sp].d(T)[sp].d([m5C])[sp].d(A)[sp].d([m5C])[sp].[moe](T)p.[moe](A)p.[moe](A)p.[moe](T)[sp].[moe](A)}$$$$ (last 3' nucleoside missing)”, the 3 h FOB score was 0 score 0-7.

“RNA1{[moe](T)[sp].[moe](G)p.[moe](A)p.[moe]([m5C])p.[moe]([m5C])[sp].d(T)[sp].d(G)[sp].d(T)[sp].d(G)[sp].d(A)[sp].d([m5C])[sp].d(T)[sp].d(A)[sp].d(T)[sp].d([m5C])[sp].[moe](T)p.[moe](A)p.[moe](G)[sp].[moe](G)}$$$$ (last 3' nucleoside missing)” showed a 3 h FOB score of 5 score 0-7.

“RNA1{[moe](T)[sp].[moe](T)p.[moe](T)p.[moe]([m5C])p.[moe](T)[sp].d([m5C])[sp].d(T)[sp].d([m5C])[sp].d([m5C])[sp].d(T)[sp].d(G)[sp].d(T)[sp].d(T)[sp].d(T)[sp].d([m5C])[sp].[moe](A)p.[moe](G)p.[moe]([m5C])[sp].[moe](A)}$$$$ (last 3' nucleoside missing)” showed a 3 h FOB score of 3 score 0-7.

“RNA1{[moe](G)[sp].[moe](T)p.[moe](G)p.[moe](T)p.[moe](G)[sp].d(T)[sp].d(A)[sp].d(T)[sp].d(T)[sp].d(A)[sp].d(G)[sp].d(G)[sp].d(A)[sp].d(T)[sp].d([m5C])[sp].[moe]([m5C])p.[moe]([m5C])p.[moe](A)[sp].[moe](T)}$$$$ (last 3' nucleoside missing)” showed a 3 h FOB score of 6 score 0-7.

“RNA1{[moe](A)[sp].[moe](G)p.[moe](T)p.[moe](G)p.[moe](T)p.[moe](G)p.d(T)[sp].d(A)[sp].d(T)[sp].d(T)[sp].d(A)[sp].d(G)[sp].d(G)[sp].d(A)[sp].d(T)[sp].d([m5C])[sp].[moe]([m5C])p.[moe]([m5C])[sp].[moe](A)}$$$$ (last 3' nucleoside missing)” was tested, and the 3 h FOB score was 4 score 0-7.

“RNA1{[moe](G)[sp].[moe](A)p.[moe]([m5C])p.[moe](T)p.[moe](A)[sp].d(T)[sp].d([m5C])[sp].d(T)[sp].d(A)[sp].d(G)[sp].d(G)[sp].d(A)[sp].d(T)[sp].d(T)[sp].d(T)[sp].[moe](G)p.[moe](G)p.[moe]([m5C])[sp].[moe](A)}$$$$ (last 3' nucleoside missing)” showed a 3 h FOB score of 5 score 0-7.

Work on “RNA1{[moe](G)[sp].[moe](G)p.[moe]([m5C])p.[moe](T)p.[moe](T)[sp].d([m5C])[sp].d(A)[sp].d(T)[sp].d([m5C])[sp].d(T)[sp].d(G)[sp].d([m5C])[sp].d(T)[sp].d(T)[sp].d([m5C])[sp].[moe]([m5C])p.[moe](T)p.[moe](G)[sp].[moe](G)}$$$$ (last 3' nucleoside missing)” yielded a 3 h FOB score of 1 score 0-7.

“RNA1{[moe]([m5C])[sp].[moe]([m5C])p.[moe]([m5C])p.[moe]([m5C])p.[moe](T)[sp].d(T)[sp].d(T)[sp].d([m5C])[sp].d(T)[sp].d([m5C])[sp].d(T)[sp].d([m5C])[sp].d([m5C])[sp].d(T)[sp].d(G)[sp].[moe](T)p.[moe](T)p.[moe](T)[sp].[moe]([m5C])}$$$$ (last 3' nucleoside missing)” gave a 3 h FOB score of 2 score 0-7.

Substance “RNA1{[moe](G)[sp].[moe](T)p.[moe](A)p.[moe](G)p.[moe](T)[sp].d(T)[sp].d(T)[sp].d([m5C])[sp].d([m5C])[sp].d(T)[sp].d(T)[sp].d(T)[sp].d(T)[sp].d(A)[sp].d([m5C])[sp].[moe]([m5C])p.[moe](A)p.[moe](A)[sp].[moe](G)}$$$$ (last 3' nucleoside missing)” has a 3 h FOB score of 1 score 0-7.

Work on “RNA1{[moe](T)[sp].[moe](G)p.[moe](G)p.[moe]([m5C])p.[moe](A)[sp].d(G)[sp].d(T)[sp].d(A)[sp].d(T)[sp].d(T)[sp].d(A)[sp].d([m5C])[sp].d([m5C])[sp].d(T)[sp].d([m5C])[sp].[moe](T)p.[moe](A)p.[moe]([m5C])[sp].[moe](T)}$$$$ (last 3' nucleoside missing)” yielded a 3 h FOB score of 1 score 0-7.

In the case of “RNA1{[moe](G)[sp].[moe](T)p.[moe](G)p.[moe]([m5C])p.[moe](T)[sp].d(T)[sp].d(T)[sp].d(A)[sp].d(G)[sp].d(T)[sp].d(G)[sp].d(A)[sp].d([m5C])[sp].d([m5C])[sp].d(T)[sp].[moe](G)p.[moe](T)p.[moe](G)[sp].[moe](A)}$$$$ (last 3' nucleoside missing)”, the 3 h FOB score is reported as 5 score 0-7.

“RNA1{[moe](T)[sp].[moe](T)p.[moe](G)p.[moe](G)p.d([m5C])[sp].d(A)[sp].d(G)[sp].d(T)[sp].d(A)[sp].d(T)[sp].d(T)[sp].d(A)[sp].d([m5C])[sp].d([m5C])[sp].[moe](T)p.[moe]([m5C])p.[moe](T)p.[moe](A)[sp].[moe]([m5C])}$$$$ (last 3' nucleoside missing)” was tested, and the 3 h FOB score was 1 score 0-7.

In the case of “RNA1{[moe](T)[sp].[moe](T)p.[moe](G)p.[moe](A)p.[moe](G)[sp].d(A)[sp].d(T)[sp].d(A)[sp].d(T)[sp].d([m5C])[sp].d(T)[sp].d(T)[sp].d(G)[sp].[moe](T)p.[moe](G)p.[moe](A)[sp].[moe]([m5C])}$$$$ (last 3' nucleoside missing)”, the 3 h FOB score is reported as 3 score 0-7.
